Key:
[1] = test system: Saccharomyces cerevisiae NRRL Y-12632; assay: Dose-dependent response of ethanologenic yeast to HMF (cell growth, OD600)
Procedure: A loopful of cells of each strain from the synthetic medium agar plate was transferred into a synthetic broth and incubated at 30° C. with agitation and maintained in the broth prior to inoculum preparation. Cells were harvested by centrifugation 8-15 hours after incubation and suspended in a fresh synthetic broth serving as the inoculum source. The initial OD at 620 nm of the inoculated medium for each culture was adjusted and recorded. Each strain was grown in a 15-ml test tube containing 3 ml of synthetic broth amended with inhibitory compounds in an incubator at 30° C. with agitation at 220 rpm under micro-oxic conditions. Cell growth was monitored by measuring optical absorbance at 620 nm using a spectrophotometer and samples were taken periodically.
For inhibitor application, cultures were supplemented with HMF at a series of final concentrations of 0, 10, 30, 60, and 120 mM, or combined inhibitors of furfural and HMF each at 12 mM, respectively. A non inhibitor treated culture served as a control. Cultures were monitored for cell growth at OD600 and samples were taken hourly for the first 16 hours and proper intervals afterward till the completion of the fermentation. Cell free supernatant was taken for metabolic profiling analysis using HPLC. […] Duplicated experiments were carried out for all treatments.

[2] = test system: furfural reduction activity of Y-50049 whole cell extracts; assay: Whole cell lysate enzyme assay after inhibitor induction (absorbance at 340 nm); format: biochemical, Saccharomyces cerevisiae; settings: induction with 30 mM inhibitor for 3 h; 10 mM furfural substrate; 100 μM NADPH

SMILES | cell growth ([1]; HMF at 120 mM) | cell growth ([1]; HMF at 10, 30 and 60 mM, compared with control) | lethal dose (cells completely repressed, no biological activity or HMF transformation till 128 hours) ([1]; synthetic medium, 30° C.) [mM] | induced furfural reduction activity coupled with cofactor NADPH [2]
O=Cc1ccc(CO)o1 [HMF, 5-hydroxymethylfurfural] | no cell growth was observed | delayed | 120 | ranked the least
O=Cc1ccco1 [furfural] |  |  |  | strongest activities
